# Measurements published in the supplement of paper PMC10307832.
# Columns and labels:
# Test in all cases: relative viability (nuclei count vs DMSO), 5 days (fraction); higher = more cells survive
# [1] = compound: C1=CC=C(C(=C1)C2=CC=C(C=C2)C3=CSC4=C3C(=C(C(=O)N4)C#N)O)O + CCNC(=O)c1noc(-c2cc(C(C)C)c(O)cc2O)c1-c1ccc(CN2CCOCC2)cc1 [Luminespib] (partner 0.01 µM)
# Method in brief: (§1)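 Nuclei were stained with Hoechst during a one-step fixation (final 0.05% Triton X-100, 1% formaldehyde, 1 ug/ml Hoechst) carried out 5 days after dosing, then counted on 4× images. The cells, lung cancer lines in 1536-well plates, had been dosed by pin tool the day after seeding with one drug alone or a fixed anchor-drug dose plus five library-drug doses (not always all listed) in √10 steps. Relative viability is the nuclei count in treated wells divided by that in vehicle wells, and each value is the median of duplicate plates.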
# TGX 221 + Tozasertib = compound: CC1=CN2C(=O)C=C(N=C2C(=C1)C(C)NC3=CC=CC=C3)N4CCOCC4 [TGX 221] + Cc1cc(Nc2cc(N3CCN(C)CC3)nc(Sc3ccc(NC(=O)C4CC4)cc3)n2)n[nH]1 [Tozasertib] (partner 0.1 µM)
# Method in brief: as §1
# TGX 221 + Phenformin = compound: CC1=CN2C(=O)C=C(N=C2C(=C1)C(C)NC3=CC=CC=C3)N4CCOCC4 [TGX 221] + N=C(N)NC(=N)NCCc1ccccc1 [Phenformin] (partner 250 µM)
# Method in brief: as §1
# TGX 221 + AZD7762 = compound: CC1=CN2C(=O)C=C(N=C2C(=C1)C(C)NC3=CC=CC=C3)N4CCOCC4 [TGX 221] + NC(=O)Nc1cc(-c2cccc(F)c2)sc1C(=O)N[C@H]1CCCNC1 [AZD7762] (partner 0.2 µM)
# Method in brief: as §1
Cell Line,relative viability ([1]; first compound 0.08 µM),relative viability ([1]; first compound 0.253 µM),relative viability ([1]; first compound 0.8 µM),relative viability ([1]; first compound 2.53 µM),relative viability ([1]; first compound 8 µM),relative viability (TGX 221 + Tozasertib; first compound 0.08 µM),relative viability (TGX 221 + Tozasertib; first compound 0.253 µM),relative viability (TGX 221 + Tozasertib; first compound 0.8 µM),relative viability (TGX 221 + Tozasertib; first compound 2.53 µM),relative viability (TGX 221 + Tozasertib; first compound 8 µM),relative viability (TGX 221 + Phenformin; first compound 0.08 µM),relative viability (TGX 221 + Phenformin; first compound 0.253 µM),relative viability (TGX 221 + Phenformin; first compound 0.8 µM),relative viability (TGX 221 + Phenformin; first compound 2.53 µM),relative viability (TGX 221 + Phenformin; first compound 8 µM),relative viability (TGX 221 + AZD7762; first compound 0.08 µM),relative viability (TGX 221 + AZD7762; first compound 0.253 µM),relative viability (TGX 221 + AZD7762; first compound 0.8 µM),relative viability (TGX 221 + AZD7762; first compound 2.53 µM),relative viability (TGX 221 + AZD7762; first compound 8 µM)
NCI-H1793,0.19,0.21,0.42,0.225,0.166,0.311,0.239,0.244,0.16,0.166,0.367,0.256,0.311,0.25,0.309,0.295,0.303,0.313,0.347,0.266
NCI-H1651,0.77,0.818,0.971,0.974,0.546,0.602,0.649,0.696,0.566,0.418,0.283,0.265,0.437,0.316,0.286,0.384,0.468,0.439,0.414,0.368
NCI-H1437,1.01,1.34,1.17,1.17,0.902,0.383,0.406,0.404,0.361,0.311,0.315,0.302,0.252,0.269,0.335,1.11,1.12,1.11,1.07,1.01
NCI-H647,0.183,0.0923,0.19,0.245,0.209,0.284,0.219,0.312,0.285,0.122,0.457,0.414,0.405,0.427,0.457,0.324,0.448,0.407,0.278,0.328
LK-2,,0.192,0.193,0.184,0.191,0.203,0.202,0.182,0.187,0.161,0.382,0.474,0.498,0.348,0.567,0.377,0.434,0.436,0.395,0.521
LU99A,0.245,0.234,0.295,0.261,0.242,0.24,0.274,0.258,0.282,0.276,0.785,0.831,0.9,0.93,0.834,0.263,0.387,0.391,0.402,0.305
NCI-H1666,0.942,1.05,0.949,1.01,1.01,0.6,0.591,0.6,0.576,0.538,0.556,0.52,0.598,0.561,0.529,0.784,0.861,0.923,0.8,0.802
EKVX,1.14,0.977,0.863,0.912,0.726,0.381,0.343,0.329,0.317,0.272,0.213,0.225,0.232,0.22,0.221,0.685,0.607,0.601,0.579,0.594
